Structures are written as SMILES. Converted amounts (≈) assume the structure as drawn. Some results are limits rather than exact numbers.

The assay concerns various strains of bacteria. In words: Antimicrobial potency: bacterial growth inhibition by OD600 (Antibacterial assay 1, MITC95). It is filed as cell-based, A. baumannii. To be noted: lowest concentration giving >95% growth inhibition, CAMHB, 18-22 h. Here is the method: The concentrations of compounds required to inhibit the growth of various strains of bacteria were determined in an assay that assessed bacterial growth by measuring optical density at 600 nm (OD600). Test articles were dissolved in 100% DMSO and serially diluted two-fold from their maximal concentration in 100% DMSO. Forty-nine μl of bacterial inoculum (at approx. 2×10^5 cfu/mL in CAMHB) were put into wells of an assay plate. One μl of compound or DMSO was transferred from the source plate to the assay plate. The completed assay plates were then incubated at 35+2degC for 18-22 h. Bacterial growth was measured by reading OD600 on a spectrophotometer. Data analysis calculates the lowest concentration of compound which results in >95% growth inhibition (minimum inhibitory threshold concentration 95%, MITC95).

Regarding `O=C(O)c1cc(CN2CC(Oc3ccc(NS(=O)(=O)N4CCOC(c5ccc(F)cc5)C4)c(C(=O)O)c3)C2)ccc1NS(=O)(=O)N1CCOC(c2ccc(F)cc2)C1` (centres unmarked) [Compound 44, 5-((1-(3-carboxy-4-((2-(4-fluorophenyl)morpholine)-4-sulfonamido)benzyl)azetidin-3-yl)oxy)-2-((2-(4-fluorophenyl)morpholine)-4-sulfonamido)benzoic acid], the MIC (commonly the lowest concentration found to suppress growth) (Acinetobacter baumannii, 20 h) worked out at 0.391 µM (≈ 0.33 µg/mL). With `CC1(Oc2ccc(NS(=O)(=O)N3CCOC(c4ccc(F)cc4)C3)c(C(=O)O)c2)CN(Cc2ccc(NS(=O)(=O)N3CCOC(c4ccc(F)cc4)C3)c(C(=O)O)c2)C1` (centres unmarked) [Compound 45], the MIC (Acinetobacter baumannii, 20 h) turned out to be 0.0978 µM (≈ 0.0839 µg/mL). `CC1(Oc2ccc(NS(=O)(=O)N3CCOC(c4ccc(Cl)cc4)C3)c(C(=O)O)c2)CN(Cc2ccc(NS(=O)(=O)N3CCOC(c4ccc(Cl)cc4)C3)c(C(=O)O)c2)C1` (centres unmarked) [Compound 46] gave a minimum inhibitory concentration (MIC) (Acinetobacter baumannii, 20 h) of 0.391 µM (≈ 0.348 µg/mL).

For the molecule `O=C(O)c1cc(OC2CN(Cc3ccc(NS(=O)(=O)N4CCOC(c5ccc(F)cc5)C4)c(C(=O)O)c3)C2)ccc1NS(=O)(=O)N1CCOC(CCO)C1` (centres unmarked) [Compound 47], the minimal inhibitory concentration (MIC) (Acinetobacter baumannii, 20 h) stood at 1.57 µM (≈ 1.25 µg/mL). On to `O=C(O)c1cc(CN[C@H]2C[C@@H](NCc3ccc(NS(=O)(=O)c4cnn(-c5ccc(Cl)cc5)c4)c(C(=O)O)c3)C2)ccc1NS(=O)(=O)c1cnn(-c2ccc(Cl)cc2)c1` [Compound 48, 5-((((1s, 3s)-3-((3-carboxy-4-((1-(4-chlorophenyl)-1H-pyrazole)-4-sulfonamido)benzyl)amino)cyclobutyl)amino)methyl)-2-((1-(4-chlorophenyl)-1H-pyrazole)-4-sulfonamido)benzoic acid], for which the MIC (Acinetobacter baumannii, 20 h) was determined as 0.321 µM (≈ 0.278 µg/mL). `O=C(O)c1cc(CN[C@H]2C[C@@H](NCc3ccc(NS(=O)(=O)c4cnn(-c5ccc(F)cc5)c4)c(C(=O)O)c3)C2)ccc1NS(=O)(=O)c1cnn(-c2ccc(F)cc2)c1` [Compound 49] had an MIC (Acinetobacter baumannii, 20 h) of 1.56 µM (≈ 1.3 µg/mL). With `O=C(O)c1cc(CNC23CCC(NCc4ccc(NS(=O)(=O)c5cnn(-c6ccc(Cl)cc6)c5)c(C(=O)O)c4)(C2)C3)ccc1NS(=O)(=O)c1cnn(-c2ccc(Cl)cc2)c1` [Compound 50], where the note is “Acinetobacter baumannii, 20 h”, the minimal inhibitory concentration (MIC) amounted to 0.391 µM (≈ 0.349 µg/mL). On to `C[C@]1(NCc2ccc(NS(=O)(=O)c3cnn(-c4ccc(Cl)cc4)c3)c(C(=O)O)c2)C[C@@H](NCc2ccc(NS(=O)(=O)c3cnn(-c4ccc(Cl)cc4)c3)c(C(=O)O)c2)C1` [Compound 51], for which the minimum inhibitory concentration (MIC) (Acinetobacter baumannii, 20 h) was found to be 3.13 µM (≈ 2.75 µg/mL). Under “Acinetobacter baumannii, 20 h”, `CS(=O)(=O)NC(=O)c1cc(OC2CN(Cc3ccc(NS(=O)(=O)c4cnn(-c5ccc(F)cc5)c4)c(C(=O)O)c3)C2)ccc1NS(=O)(=O)c1cnn(-c2ccc(F)cc2)c1` [Compound 52, 2-((1-(4-fluorophenyl)-1H-pyrazole)-4-sulfonamido)-5-((3-(4-((1-(4-fluorophenyl)-1H-pyrazole)-4-sulfonamido)-3-((methylsulfonyl)carbamoyl)phenoxy)azetidin-1-yl)methyl)benzoic acid] registered an MIC of 0.553 µM (≈ 0.488 µg/mL). The molecule `O=C(NCc1ccc(Cl)cc1)C(=O)Nc1ccc(OC2CN(Cc3ccc(NS(=O)(=O)c4ccc(-c5ccc(Cl)cc5)cc4)c(C(=O)O)c3)C2)cc1C(=O)O` [Compound 54, 5-((1-(3-carboxy-4-((4′-chloro-[1,1′-biphenyl])-4-sulfonamido)benzyl)azetidin-3-yl)oxy)-2-(2-((4-chlorobenzyl)amino)-2-oxoacetamido)benzoic acid] returned an MIC (Acinetobacter baumannii, 20 h) of 0.0346 µM (≈ 0.0278 µg/mL).

Under “Acinetobacter baumannii, 20 h”, `O=C(NCc1ccc(Cl)cc1)C(=O)Nc1ccc(CN2CC(Oc3ccc(NS(=O)(=O)N4CCOC(c5ccc(F)cc5)C4)c(C(=O)O)c3)C2)cc1C(=O)O` (centres unmarked) [Compound 56] had an MIC of 0.0978 µM (≈ 0.0779 µg/mL). `O=C(NCc1ccc(Cl)cc1)C(=O)Nc1ccc(OC2CN(Cc3ccc(NS(=O)(=O)c4cnn(-c5ccc(Cl)cc5)c4)c(C(=O)O)c3)C2)cc1C(=O)O` [Compound 58] returned an MIC (Acinetobacter baumannii, 20 h) of 0.0245 µM (≈ 0.0194 µg/mL). As for `O=C(NCc1ccc(Cl)cc1)C(=O)Nc1ccc(OC2CN(Cc3ccc(NS(=O)(=O)c4cc(-c5ccc(F)cc5)ns4)c(C(=O)O)c3)C2)cc1C(=O)O` [Compound 59], for the setting “Acinetobacter baumannii, 20 h”, the minimal inhibitory concentration (MIC) worked out at 0.0245 µM (≈ 0.0195 µg/mL). Same read-out and setting: for `O=C(NCc1ccc(Cl)cc1)C(=O)Nc1ccc(OC2CN(Cc3ccc(NS(=O)(=O)N4CCOC(c5ccc(Cl)cc5)C4)c(C(=O)O)c3)C2)cc1C(=O)O` (centres unmarked) [Compound 60] the value was 0.0122 µM (≈ 0.00991 µg/mL). `O=C(NCc1ccc(Cl)cc1)C(=O)Nc1ccc(OC2CN(Cc3ccc(NS(=O)(=O)CCc4ccc(Cl)cc4)c(C(=O)O)c3)C2)cc1C(=O)O` [Compound 61] yielded an MIC (Acinetobacter baumannii, 20 h) of 0.196 µM (≈ 0.148 µg/mL).

With `O=C(NCc1ccccc1)C(=O)Nc1ccc(OC2CN(Cc3ccc(NS(=O)(=O)c4ccc(-c5ccc(Cl)cc5)cc4)c(C(=O)O)c3)C2)cc1C(=O)O` [Compound 62], where the note is “Acinetobacter baumannii, 20 h”, the MIC is less than 0.0488 µM. With `O=C(NCc1cccc(Cl)c1)C(=O)Nc1ccc(OC2CN(Cc3ccc(NS(=O)(=O)c4ccc(-c5ccc(Cl)cc5)cc4)c(C(=O)O)c3)C2)cc1C(=O)O` [Compound 63], the MIC (Acinetobacter baumannii, 20 h) was found to be 0.196 µM (≈ 0.158 µg/mL). Take `O=C(CCc1ccc(Cl)cc1)Nc1ccc(OC2CN(Cc3ccc(NS(=O)(=O)c4cnn(-c5ccc(Cl)cc5)c4)c(C(=O)O)c3)C2)cc1C(=O)O` [Compound 65, 5-((1-(3-carboxy-4-((1-(4-chlorophenyl)-1H-pyrazole)-4-sulfonamido)-benzyl)azetidin-3-yl)oxy)-2-(3-(4-chlorophenyl)propanamido)benzoic acid]: where the note is “Acinetobacter baumannii, 20 h”, the MIC is 0.0489 µM (≈ 0.0374 µg/mL). For the setting “Acinetobacter baumannii, 20 h”, `O=C(CCCCCc1ccccc1)Nc1ccc(OC2CN(Cc3ccc(NS(=O)(=O)c4cnn(-c5ccc(Cl)cc5)c4)c(C(=O)O)c3)C2)cc1C(=O)O` [Compound 66] returned an MIC of 0.0489 µM (≈ 0.0378 µg/mL). With `O=C(Cc1cccc(Cl)c1)Nc1ccc(OC2CN(Cc3ccc(NS(=O)(=O)c4cc(-c5ccc(F)cc5)ns4)c(C(=O)O)c3)C2)cc1C(=O)O` [Compound 67], the MIC (Acinetobacter baumannii, 20 h) came out at 0.0245 µM (≈ 0.0184 µg/mL). On the same count and under the same terms, in the case of `O=C(CCCc1ccc(Cl)cc1)Nc1ccc(OC2CN(Cc3ccc(NS(=O)(=O)c4cnn(-c5ccc(Cl)cc5)c4)c(C(=O)O)c3)C2)cc1C(=O)O` [Compound 69] it was 0.0245 µM (≈ 0.0191 µg/mL). On the same count and under the same terms, in the case of `O=C(CCc1ccc(Cl)c(Cl)c1)Nc1ccc(OC2CN(Cc3ccc(NS(=O)(=O)c4cnn(-c5ccc(Cl)cc5)c4)c(C(=O)O)c3)C2)cc1C(=O)O` [Compound 71] it was 0.0978 µM (≈ 0.0782 µg/mL). On the same count and under the same terms, for `O=C(CCCc1ccccc1)Nc1ccc(OC2CN(Cc3ccc(NS(=O)(=O)c4cnn(-c5ccc(Cl)cc5)c4)c(C(=O)O)c3)C2)cc1C(=O)O` [Compound 72] the value was 0.0978 µM (≈ 0.0728 µg/mL); for `O=C(Cc1cccc(Cl)c1)Nc1ccc(OC2CN(Cc3ccc(NS(=O)(=O)c4cnn(-c5ccc(Cl)cc5)c4)c(C(=O)O)c3)C2)cc1C(=O)O` [Compound 73], 0.196 µM (≈ 0.147 µg/mL).

On to `O=C(CCCCC(c1ccccc1)c1ccccc1)Nc1ccc(OC2CN(Cc3ccc(NS(=O)(=O)c4cnn(-c5ccc(Cl)cc5)c4)c(C(=O)O)c3)C2)cc1C(=O)O` [Compound 74], for which, under “Acinetobacter baumannii, 20 h”, the MIC is 0.31 µM (≈ 0.263 µg/mL). `O=C(CCCC(=O)c1ccc(F)cc1)Nc1ccc(OC2CN(Cc3ccc(NS(=O)(=O)c4cnn(-c5ccc(Cl)cc5)c4)c(C(=O)O)c3)C2)cc1C(=O)O` [Compound 75] showed an MIC (Acinetobacter baumannii, 20 h) of 0.277 µM (≈ 0.219 µg/mL). The same measure, in the same setting: in the case of `O=C(O)c1cc(CN2CC(Oc3ccc(NS(=O)(=O)CCc4ccc(F)cc4)c(C(=O)O)c3)C2)ccc1NS(=O)(=O)CCc1ccc(F)cc1` [Compound 78, 5-((1-(3-carboxy-4-((2-(4-fluorophenyl)ethyl)sulfonamido)benzyl)azetidin-3-yl)oxy)-2-((2-(4-fluorophenyl)ethyl)sulfonamido)benzoic acid] it was 0.782 µM (≈ 0.571 µg/mL); in that of `O=C(O)c1cc(CN2CC(Oc3ccc(NS(=O)(=O)CCc4ccc(Cl)cc4)c(C(=O)O)c3)C2)ccc1NS(=O)(=O)CCc1ccc(Cl)cc1` [Compound 79], 0.0978 µM (≈ 0.0746 µg/mL); in that of `O=C(O)c1cc(CN2CC(Oc3ccc(NS(=O)(=O)N4CC(Oc5ccc(F)cc5)C4)c(C(=O)O)c3)C2)ccc1NS(=O)(=O)N1CC(Oc2ccc(F)cc2)C1` [Compound 80, 5-((1-(3-carboxy-4-((3-(4-fluorophenoxy)azetidine)-1-sulfonamido)benzyl)azetidin-3-yl)oxy)-2-((3-(4-fluorophenoxy)azetidine)-1-sulfonamido)benzoic acid], 0.0122 µM (≈ 0.00995 µg/mL). `O=C(O)c1cc(OC2CN(Cc3ccc(NS(=O)(=O)c4ccc(-c5ccc(Cl)cc5)cc4)c(C(=O)O)c3)C2)ccc1NS(=O)(=O)CCc1ccc(F)cc1` [Compound 81, 5-((3-(3-carboxy-4-((2-(4-fluorophenyl)ethyl)sulfonamido)phenoxy)azetidin-1-yl)methyl)-2-((4′-chloro-[1, l′-biphenyl])-4-sulfonamido)benzoic acid]: the MIC was found to be 0.0122 µM (≈ 0.00969 µg/mL). As to `O=C(O)c1cc(OC2CN(Cc3ccc(NS(=O)(=O)c4cnn(-c5ccc(Cl)cc5)c4)c(C(=O)O)c3)C2)ccc1NS(=O)(=O)CCc1ccc(F)cc1` [Compound 82], for the setting “Acinetobacter baumannii, 20 h”, the MIC worked out at 0.0346 µM (≈ 0.0271 µg/mL). For the setting “Acinetobacter baumannii, 20 h”, `O=C(O)c1cc(OC2CN(Cc3ccc(NS(=O)(=O)c4ccc(-c5ccc(F)cc5)cc4)c(C(=O)O)c3)C2)ccc1NS(=O)(=O)CCc1ccc(F)cc1` [Compound 83] showed an MIC of 0.0346 µM (≈ 0.0269 µg/mL). As to `O=C(O)c1cc(OC2CN(Cc3ccc(NS(=O)(=O)N4CCOC(c5ccc(F)cc5)C4)c(C(=O)O)c3)C2)ccc1NS(=O)(=O)CCc1ccc(F)cc1` (centres unmarked) [Compound 84], the MIC (Acinetobacter baumannii, 20 h) was found to be 0.0691 µM (≈ 0.0544 µg/mL). In the case of `O=C(O)c1cc(OC2CN(Cc3ccc(NS(=O)(=O)c4cnc(-c5ccc(Cl)cc5)s4)c(C(=O)O)c3)C2)ccc1NS(=O)(=O)CCc1ccc(F)cc1` [Compound 85], the MIC (Acinetobacter baumannii, 20 h) is 0.0173 µM (≈ 0.0139 µg/mL).

Take `O=C(O)c1cc(OC2CN(Cc3ccc(NS(=O)(=O)c4ccc(-c5ccccc5)s4)c(C(=O)O)c3)C2)ccc1NS(=O)(=O)CCc1ccc(F)cc1` [Compound 86]: the MIC (Acinetobacter baumannii, 20 h) worked out at 0.0245 µM (≈ 0.0188 µg/mL).

The values above are taken from patent US20250326713A1, “INHIBITORS OF MsbA AS ANTIBIOTICS, PHARMACEUTICAL COMPOSITIONS, AND USES THEREOF” (priority 2022, published 2025).
